Source: paper PMC7156458, “Synthetic biology based construction of biological activity-related library of fungal decalin-containing diterpenoid pyrones” (Nature Communications, 2020)

Target: Aβ42 (Homo sapiens, UniProt P05067)
Test: Th-T (thioflavin-T) assay of Aβ42 aggregation
Format: biochemical
Details: for Th-T fluorescence of Aβ42 with compound, mean of three wells (Fig. 7a source data): concentration 50, unit not given

Sequence of Aβ42 (P05067 672-713): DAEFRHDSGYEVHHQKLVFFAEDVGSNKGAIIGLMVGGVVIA

C=C1CCC2C(C)(CCC=C(C)C)C(O)CCC2(C)C1Cc1c(OC)oc(CO)c(C(=O)OC)c1=O (stereo not drawn) [Compound 13]
Th-T fluorescence of Aβ42 with compound, mean of three wells (Fig. 7a source data) (time-course reading M143): 0.478 | Th-T fluorescence of Aβ42 with compound, mean of three wells (Fig. 7a source data) (time-course reading M144): 0.478 | Th-T fluorescence of Aβ42 with compound, mean of three wells (Fig. 7a source data) (time-course reading M145): 0.4736 | Th-T fluorescence of Aβ42 (sheet Fig. 7a), mean of three wells (head suffix _10 (concentration 10), reading M63): 1.556 | Th-T fluorescence of Aβ42 (sheet Fig. 7a), mean of three wells (head suffix _10 (concentration 10), reading M64): 1.557 | Th-T fluorescence of Aβ42 (sheet Fig. 7a), mean of three wells (head suffix _10 (concentration 10), reading M65): 1.551 | Th-T fluorescence of Aβ42 (sheet Fig. 7a), mean of three wells (head suffix _10 (concentration 10), reading M66): 1.553 | Th-T fluorescence of Aβ42 (sheet Fig. 7a), mean of three wells (head suffix _10 (concentration 10), reading M67): 1.558 | Th-T fluorescence of Aβ42 (sheet Fig. 7a), mean of three wells (head suffix _10 (concentration 10), reading M68): 1.564 | Th-T fluorescence of Aβ42 (sheet Fig. 7a), mean of three wells (head suffix _10 (concentration 10), reading M69): 1.56 | Th-T fluorescence of Aβ42 (sheet Fig. 7a), mean of three wells (head suffix _10 (concentration 10), reading M70): 1.554 | Th-T fluorescence of Aβ42 (sheet Fig. 7a), mean of three wells (head suffix _10 (concentration 10), reading M71): 1.549 | Th-T fluorescence of Aβ42 (sheet Fig. 7a), mean of three wells (head suffix _10 (concentration 10), reading M72): 1.561 | Th-T fluorescence of Aβ42 (sheet Fig. 7a), mean of three wells (head suffix _10 (concentration 10), reading M73): 1.566 | Th-T fluorescence of Aβ42 (sheet Fig. 7a), mean of three wells (head suffix _10 (concentration 10), reading M74): 1.559 | Th-T fluorescence of Aβ42 (sheet Fig. 7a), mean of three wells (head suffix _10 (concentration 10), reading M75): 1.561 | Th-T fluorescence of Aβ42 (sheet Fig. 7a), mean of three wells (head suffix _10 (concentration 10), reading M76): 1.555 | Th-T fluorescence of Aβ42 (sheet Fig. 7a), mean of three wells (head suffix _10 (concentration 10), reading M77): 1.558 | Th-T fluorescence of Aβ42 (sheet Fig. 7a), mean of three wells (head suffix _10 (concentration 10), reading M78): 1.561 | Th-T fluorescence of Aβ42 (sheet Fig. 7a), mean of three wells (head suffix _10 (concentration 10), reading M79): 1.5579 | Th-T fluorescence of Aβ42 (sheet Fig. 7a), mean of three wells (head suffix _10 (concentration 10), reading M80): 1.555 | Th-T fluorescence of Aβ42 (sheet Fig. 7a), mean of three wells (head suffix _10 (concentration 10), reading M81): 1.559 | Th-T fluorescence of Aβ42 (sheet Fig. 7a), mean of three wells (head suffix _10 (concentration 10), reading M82): 1.556 | Th-T fluorescence of Aβ42 (sheet Fig. 7a), mean of three wells (head suffix _10 (concentration 10), reading M83): 1.5605 | Th-T fluorescence of Aβ42 (sheet Fig. 7a), mean of three wells (head suffix _10 (concentration 10), reading M84): 1.551 | Th-T fluorescence of Aβ42 (sheet Fig. 7a), mean of three wells (head suffix _20 (concentration 20), reading M63): 1.031 | Th-T fluorescence of Aβ42 (sheet Fig. 7a), mean of three wells (head suffix _20 (concentration 20), reading M64): 1.035 | Th-T fluorescence of Aβ42 (sheet Fig. 7a), mean of three wells (head suffix _20 (concentration 20), reading M65): 1.042 | Th-T fluorescence of Aβ42 (sheet Fig. 7a), mean of three wells (head suffix _20 (concentration 20), reading M66): 1.05 | Th-T fluorescence of Aβ42 (sheet Fig. 7a), mean of three wells (head suffix _20 (concentration 20), reading M67): 1.057 | Th-T fluorescence of Aβ42 (sheet Fig. 7a), mean of three wells (head suffix _20 (concentration 20), reading M68): 1.061 | Th-T fluorescence of Aβ42 (sheet Fig. 7a), mean of three wells (head suffix _20 (concentration 20), reading M69): 1.053 | Th-T fluorescence of Aβ42 (sheet Fig. 7a), mean of three wells (head suffix _20 (concentration 20), reading M70): 1.058 | Th-T fluorescence of Aβ42 (sheet Fig. 7a), mean of three wells (head suffix _20 (concentration 20), reading M71): 1.058 | Th-T fluorescence of Aβ42 (sheet Fig. 7a), mean of three wells (head suffix _20 (concentration 20), reading M72): 1.061 | Th-T fluorescence of Aβ42 (sheet Fig. 7a), mean of three wells (head suffix _20 (concentration 20), reading M73): 1.063 | Th-T fluorescence of Aβ42 (sheet Fig. 7a), mean of three wells (head suffix _20 (concentration 20), reading M74): 1.057 | Th-T fluorescence of Aβ42 (sheet Fig. 7a), mean of three wells (head suffix _20 (concentration 20), reading M75): 1.056 | Th-T fluorescence of Aβ42 (sheet Fig. 7a), mean of three wells (head suffix _20 (concentration 20), reading M76): 1.058 | Th-T fluorescence of Aβ42 (sheet Fig. 7a), mean of three wells (head suffix _20 (concentration 20), reading M77): 1.059 | Th-T fluorescence of Aβ42 (sheet Fig. 7a), mean of three wells (head suffix _20 (concentration 20), reading M78): 1.0603 | Th-T fluorescence of Aβ42 (sheet Fig. 7a), mean of three wells (head suffix _20 (concentration 20), reading M79): 1.056 | Th-T fluorescence of Aβ42 (sheet Fig. 7a), mean of three wells (head suffix _20 (concentration 20), reading M80): 1.0496 | Th-T fluorescence of Aβ42 (sheet Fig. 7a), mean of three wells (head suffix _20 (concentration 20), reading M81): 1.051 | Th-T fluorescence of Aβ42 (sheet Fig. 7a), mean of three wells (head suffix _20 (concentration 20), reading M82): 1.061 | Th-T fluorescence of Aβ42 (sheet Fig. 7a), mean of three wells (head suffix _20 (concentration 20), reading M83): 1.058 | Th-T fluorescence of Aβ42 (sheet Fig. 7a), mean of three wells (head suffix _20 (concentration 20), reading M84): 1.053 | Th-T fluorescence of Aβ42 (sheet Fig. 7a), mean of three wells (head suffix _50 (concentration 50), reading M63): 0.4695 | Th-T fluorescence of Aβ42 (sheet Fig. 7a), mean of three wells (head suffix _50 (concentration 50), reading M64): 0.467 | Th-T fluorescence of Aβ42 (sheet Fig. 7a), mean of three wells (head suffix _50 (concentration 50), reading M65): 0.4693 | Th-T fluorescence of Aβ42 (sheet Fig. 7a), mean of three wells (head suffix _50 (concentration 50), reading M66): 0.4724 | Th-T fluorescence of Aβ42 (sheet Fig. 7a), mean of three wells (head suffix _50 (concentration 50), reading M67): 0.4748 | Th-T fluorescence of Aβ42 (sheet Fig. 7a), mean of three wells (head suffix _50 (concentration 50), reading M68): 0.4706 | Th-T fluorescence of Aβ42 (sheet Fig. 7a), mean of three wells (head suffix _50 (concentration 50), reading M69): 0.4713 | Th-T fluorescence of Aβ42 (sheet Fig. 7a), mean of three wells (head suffix _50 (concentration 50), reading M70): 0.4681 | Th-T fluorescence of Aβ42 (sheet Fig. 7a), mean of three wells (head suffix _50 (concentration 50), reading M71): 0.4721 | Th-T fluorescence of Aβ42 (sheet Fig. 7a), mean of three wells (head suffix _50 (concentration 50), reading M72): 0.4741
